Reference: PMC2949542 (Analytical biochemistry, 2010)
pKd: −log10 of the molar value. Like-named read-outs stand apart in the source and are kept apart here.

Legend:
[1] = target: T1, carbonic anhydrase II (CAII) (Bos taurus, UniProt P00921); experiment: SPR; details: for kon: read-out: ka
[2] = target: T1, carbonic anhydrase II (CAII); details: read-out: KD (μM) ProteOn (2); BioRad ProteOn XPR36; cited from earlier work
[3] = target: T1, carbonic anhydrase II (CAII); details: read-out: KD (μM) Biacore (8); benchmark study on Biacore platforms; cited from earlier work
[4] = target: T1, carbonic anhydrase II (CAII); experiment: SPR standard injection, ADP over negative-control CAII surface; type: binding; details: standard injections, two-fold dilution series from 300 uM, 25 °C

T1 sequence (P00921 whole entry): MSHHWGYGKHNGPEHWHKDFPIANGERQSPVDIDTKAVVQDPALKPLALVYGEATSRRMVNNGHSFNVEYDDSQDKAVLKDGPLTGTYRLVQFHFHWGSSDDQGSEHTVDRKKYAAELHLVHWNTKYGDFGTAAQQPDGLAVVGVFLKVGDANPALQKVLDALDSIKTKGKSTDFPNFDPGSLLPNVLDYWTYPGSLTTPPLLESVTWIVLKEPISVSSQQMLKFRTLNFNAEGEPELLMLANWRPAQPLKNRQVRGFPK

SMILES | pKd [1] | kon [1] | Kd [2] | Kd [3] | binding on negative-control CAII surface [4]
NS(=O)(=O)c1cccc(S(N)(=O)=O)c1 [1,3-Benzenedisulfonamide] | 6.21 | 179000 M⁻¹ s⁻¹ | 0.64 µM | 0.8 µM | –
NCc1ccc(S(N)(=O)=O)cc1 [4-(Aminomethyl)benzenesulfonamide] | 5.28 | 7300 M⁻¹ s⁻¹ | – | 3 µM | –
Nc1ncnc2c1ncn2[C@@H]1O[C@H](COP(=O)(O)OP(=O)(O)O)[C@@H](O)[C@H]1O [ADP, adenosine diphosphate] | – | – | – | – | no reliable ADP binding was observed
NS(=O)(=O)c1ccccc1 [Benzenesulfonamide] | 6.01 | 135000 M⁻¹ s⁻¹ | 1.1 µM | 0.8 µM | –
CN(C)c1cccc2c(S(N)(=O)=O)cccc12 [Dansylamide] | – | – | 0.8 µM | 0.4 µM | –
